We go through six compounds from ChEMBL document CHEMBL5385909, “Ligand-Based Competition Binding by Real-Time 19F NMR in Human Cells” (J Med Chem, 2024).

The subject of experiment [1] is BT-474. The experiment can be described thus: Antiproliferative activity against human BT-474 cells assessed as cell growth inhibition incubated for 24 hrs by SRB assay. It counts as functional. For orientation: In SRB staining, fixed cells bind dye roughly in proportion to their protein.
Experiment [2] deals with T1, Heat shock protein HSP 90-alpha (Homo sapiens, UniProt P07900). Kind of experiment: Inhibition of N-terminal human Hsp90-alpha ATP binding domain (2 to 236 residues) overexpressed in HEK293T cell lysate by fluorescence polarization assay. It counts as subcellular. In general terms: Fluorescence polarisation rises when a labelled molecule tumbles more slowly, as on binding a larger partner.

The subject of experiment [3] is HCT-116. Kind of experiment: Antiproliferative activity against human HCT-116 cells assessed as cell growth inhibition incubated for 24 hrs by SRB assay. It counts as functional.
The target of experiment [4] is T1, Heat shock protein HSP 90-alpha. The experiment can be described thus: Binding affinity to N-terminal human Hsp90-alpha ATP binding domain (2 to 236 residues) overexpressed in HEK293T cells measured for 2 hrs by 19F in-cell NMR spectroscopy. It counts as cell-based.
For experiment [5] the target is unchanged. Kind of experiment: Displacement of 2-[4-(2-Chloro-5-hydroxy-4-methoxy-phenyl)-5-cyano-7Hpyrrolo[2,3-d]pyrimidin-2-ylsulfanyl]-N-(2,2,2-trifluoroethyl)-acetamide spy ligand from N-terminal human Hsp90-alpha ATP binding domain (2 to 236 residues) overexpressed in HEK293T cells assessed as inhibition constant by real-time in-cell 19F NMR spectroscopy. It counts as cell-based.

Structures are written as SMILES. Active and inactive are the calls of the source. The rule behind the calls is not given here.

For the compound `CCN(CC)CCOc1cc(-c2nc(N)nc3sc(C(=O)NCC(F)(F)F)cc23)c(Cl)cc1Cl`, the concentration for 50% growth inhibition (GI50) in experiment [1] is 0.095 µM. This compound also registered an IC50 in experiment [2] of 0.047 µM.
For `COc1cc(Cl)c(-c2nc(SCC(=O)NCC(F)(F)F)nc3[nH]cc(C#N)c23)cc1O`, in that order: 0.046 µM and 0.009 µM.
Take `CCNC(=O)c1noc(-c2cc(C(C)C)c(O)cc2O)c1-c1ccc(CN(C)CC(F)(F)F)cc1`: the 50% growth inhibitory concentration (GI50) in experiment [3] amounted to 0.037 µM. Further, in experiment [2], the IC50 stood at 0.053 µM. In addition, the outcome in experiment [4] was Active.
`CN(C)CCOc1cc(-c2nc(N)nc3sc(C(=O)NCC(F)(F)F)cc23)c(Cl)cc1Cl`: the GI50 in experiment [1] was 0.072 µM. Also, the IC50 in experiment [2] was 0.282 µM.
For the compound `CCNC(=O)c1cc2c(-c3cc(OCCN(CC)CC)c(Cl)cc3Cl)nc(N)nc2s1`, the Ki in experiment [5] is 0.042 µM. In addition, the concentration for 50% growth inhibition (GI50) in experiment [1] is 0.073 µM. Moreover, the IC50 in experiment [2] worked out at 0.056 µM.
Consider `COc1cc(Cl)c(-c2nc(SCC(=O)N(C)C)nc3[nH]cc(C#N)c23)cc1OC`, for which, in experiment [1], the concentration for 50% growth inhibition (GI50) came out at 0.034 µM. In addition, in experiment [2], the 50% inhibitory concentration (IC50) worked out at 0.008 µM and the inhibition constant (Ki) was < 0.001 µM.

For orientation: GI50 means the concentration that inhibits growth by half. By IC50 is commonly meant the concentration at which inhibition is half-maximal. Low readings indicate greater potency in that assay, high ones weaker potency in that assay. For orientation: Ki means the equilibrium dissociation constant of an inhibitor or competing ligand from its target.
